Assay results reported in paper PMC8984819, “Acetylene containing 2-(2-hydrazinyl)thiazole derivatives: design, synthesis, and in vitro and in silico evaluation of antimycobacterial activity against Mycobacterium tuberculosis” (RSC Advances, 2022).
≈ marks a conversion by molar mass, not a printed value. Where two headings read alike, the source gives them in different places.

Tests used:
[1] = test system: H37Rv strain of Mycobacterium tuberculosis; experiment: microbe, parasite or virus in culture; type: cell-based; conditions: for % Inhibition ± SD / inhibition at 50 µg/mL / inhibition at 100 µg/mL: LRP assay; for inhibition at 50 µg/mL / inhibition at 100 µg/mL / inhibition at 2 µg/mL: H37RV; for inhibition at 50 µg/mL / inhibition at 100 µg/mL: read-out: % Inhibition ± SD
in vitro = type: cell-based; conditions: human
Experimental: HEK293 cells were grown in DMEM media containing 10% FBS and L-glutamine–penicillin–streptomycin solution at 37 °C in 5% CO2 condition. To perform MTT assay, 96 well tissue culture plate was seeded with […] number of cells. After 16 hours of seeding, cells were successfully attached to the culture plate and were treated with the active chemical compounds dissolved in DMSO at different concentrations as follows: 25 μg ml^−1, 50 μg ml^−1, 75 μg ml^−1 and 100 μg ml^−1. The cells were also treated with the DMSO to exclude the solvent-induced toxicity and used as an internal control. After 48 hours post active chemical compounds treatment, the MTT assay was performed as described previously.[45] MG-132, a potent proteasomal inhibitor and an inducer of apoptosis[46,47] was used as a positive control in the assay. Wells with media lacking any cells were as used as a negative control in the assay.
Tetrazolium-based […] cytotoxicity (MTT) assay is an important method to evaluate the viability of cells and it was performed for all the active chemical compounds using HEK293. To illustrate the percentage cell viability, the HEK293 cells were incubated with different concentrations of all active chemical compounds for 48 h. The compounds showing the viability of less than 50% of the cells were considered cytotoxic compounds. We observed that maximum compounds (such as 7, 9, 10, 13 and 25) show more than 75% of the cell viability at the highest concentration i.e. 100 μg ml^−1 for 48 hours of the treatment. Similarly, other compounds (such as 5, 6, 22, 26 and 31) show 70% cell viability upon 48 hours of the treatment. […] MG-132, a potent proteasomal inhibitor and an inducer of apoptosis was used as a positive control in the assay.

[2] = Mycobacterium tuberculosis, 50 µg/ml, M. Tb H37Rv
[3] = Mycobacterium tuberculosis, 100 µg/ml, M. Tb H37Rv

Row | Structure (SMILES) | inhibition at 50 µg/mL [1, 2] [%] | inhibition at 100 µg/mL [1, 3] [%] | melting point [°C] | further results
1 | C#CCOc1ccc(Br)cc1/C=N/Nc1nc(-c2ccc(C)cc2)cs1 [Compound 31] | 54.9 ± 1.64 | 56.3 ± 1.68 | 191 to 193 | % Inhibition ± SD ([1]; 50 µg/ml, M. Tb H37Rv): 54%; viability at 48 h, 100 μg ml^−1 (in vitro): 70%
2 | C#CCOc1ccc(/C=N/Nc2nc(-c3ccc(F)cc3)cs2)cc1OCC [Compound 17] | 2.06 ± 0.06 | 11.4 ± 0.34 | 152 to 154 | 
3 | C#CCOc1ccccc1/C=N/Nc1nc(-c2ccc(F)cc2)cs1 [Compound 8] | 38 ± 1.14 |  | 180 to 182 | 
4 | C#CCOc1ccc(/C=N/Nc2nc(-c3ccccc3)cs2)cc1OCC [Compound 16] | 40.5 ± 1.21 | 48.7 ± 1.46 |  | 
5 | C#CCOc1ccc(Br)cc1/C=N/Nc1nc(-c2ccc(Br)cc2)cs1 [Compound 29] | 27.1 ± 0.81 | 37.2 ± 1.11 | 208 to 210 | 
6 | C#CCOc1ccccc1/C=N/Nc1nc(-c2ccc(C)cc2)cs1 [Compound 14] | 38.2 ± 1.14 |  |  | 
7 | C#CCOc1ccccc1/C=N/Nc1nc(-c2ccc(C#N)cc2)cs1 [Compound 13] | 54.3 ± 1.62 |  | 150 to 152 | viability at 48 h, 100 μg ml^−1 (in vitro): > 75%
8 | C#CCOc1ccc(Br)cc1/C=N/NC(N)=S [Compound 6] | 51.2 ± 1.53 | 56.9 ± 1.7 | 204 to 206 | viability at 48 h, 100 μg ml^−1 (in vitro): 70%
9 | C#CCOc1ccc(/C=N/Nc2nc(-c3ccc(OC)cc3)cs2)cc1OCC [Compound 24] | 5.64 ± 0.16 | 33 ± 0.98 | 183 to 185 | 
10 | C#CCOc1ccc(/C=N/Nc2nc(-c3ccc(C)cc3)cs2)cc1OCC [Compound 23] | 8.72 ± 0.26 | 10.5 ± 0.31 | 166 to 168 | 
11 | C#CCOc1ccc(/C=N/Nc2nc(-c3ccc(Cl)c(Cl)c3)cs2)cc1OCC [Compound 19] | 2.38 ± 0.07 | 7.21 ± 0.21 | 153 to 155 | 
12 | C#CCOc1ccccc1/C=N/Nc1nc(-c2ccc(OC)cc2)cs1 [Compound 15] | 10.3 ± 0.3 |  | 181 to 183 | 
13 | C#CCOc1ccc(Br)cc1C=O [Compound 3] | 48.7 ± 1.46 | 50.9 ± 1.52 | 92 to 93 | 
14 | NNC(=O)c1ccncc1 [INH, isoniazid, reference compound] |  |  |  | inhibition at 2 µg/mL ([1]; Mycobacterium tuberculosis, at 2 µg/ml, reference drugs, M. Tb H37Rv, read-out: % Inhibition): > 99%
15 | C#CCOc1ccc(Br)cc1/C=N/Nc1nc(-c2ccc(OC)cc2)cs1 [Compound 32] | 43.7 ± 1.31 | 48.7 ± 1.46 | 184 to 187 | 
16 | C#CCOc1ccccc1/C=N/Nc1nc(-c2ccc([N+](=O)[O-])cc2)cs1 [Compound 12] | 29.1 ± 0.87 |  | 185 to 187 | 
17 | C#CCOc1ccc(Br)cc1/C=N/Nc1nc(-c2ccc(F)cc2)cs1 [Compound 26] | 50.7 ± 1.52 | 57.7 ± 1.73 | 207 to 209 | viability at 48 h, 100 μg ml^−1 (in vitro): 70%

Row | Structure (SMILES) | inhibition at 50 µg/mL [1, 2] [%] | inhibition at 100 µg/mL [1, 3] [%] | melting point [°C] | further results
18 | C#CCOc1ccccc1/C=N/Nc1nc(-c2ccc(Br)cc2)cs1 [Compound 11] | 49.1 ± 1.47 |  | 144 to 146 | 
19 | C#CCOc1ccc(/C=N/Nc2nc(-c3ccc(C#N)cc3)cs2)cc1OCC [Compound 22] | 50.9 ± 1.52 | 57.2 ± 1.71 |  | viability at 48 h, 100 μg ml^−1 (in vitro): 70%
20 | C#CCOc1ccc(Br)cc1/C=N/Nc1nc(-c2ccc(Cl)c(Cl)c2)cs1 [Compound 28] | 43.8 ± 1.31 | 50.2 ± 1.5 | 213 to 215 | % Inhibition ± SD ([1]; 100 µg/ml, M. Tb H37Rv): 50%
21 | CO[C@H]1/C=C/O[C@@]2(C)Oc3c(C)c(O)c4c(O)c(c(/C=N/N5CCN(C)CC5)c(O)c4c3C2=O)NC(=O)/C(C)=C\C=C\[C@H](C)[C@H](O)[C@@H](C)[C@@H](O)[C@@H](C)[C@H](OC(C)=O)[C@@H]1C [RIF, rifampicin, reference compound] |  |  |  | inhibition at 2 µg/mL ([1]; Mycobacterium tuberculosis): > 99%
22 | C#CCOc1ccc(Br)cc1/C=N/Nc1nc(-c2ccc(C#N)cc2)cs1 [Compound 30] | 43.7 ± 1.31 | 48.7 ± 1.46 | 199 to 201 | 
23 | C#CCOc1ccc(C=O)cc1OCC [Compound 2] | 7.73 ± 0.23 | 8.08 ± 0.24 | 74 to 75 | 
24 | C#CCOc1ccc(/C=N/Nc2nc(-c3ccc(Br)cc3)cs2)cc1OCC [Compound 20] | 7.35 ± 0.22 | 12.1 ± 0.36 |  | 
25 | C#CCOc1ccc(/C=N/Nc2nc(-c3ccc(Cl)cc3)cs2)cc1OCC [Compound 18] | 6.36 ± 0.19 | 17.8 ± 0.53 |  | 
26 | C#CCOc1ccc(Br)cc1/C=N/Nc1nc(-c2ccccc2)cs1 [Compound 25] | 61 | 66.2 ± 1.98 | 195 to 197 | % Inhibition ± SD ([1]; 50 µg/ml, M. Tb H37Rv): 61.86 ± 1.85%; MIC ([1]; Mycobacterium tuberculosis, concentration giving 50% inhibition of M. Tb H37Rv): 50 µg/mL (≈ 121 µM); viability at 48 h, 100 μg ml^−1 (in vitro): > 75%
27 | C#CCOc1ccccc1C=O [Compound 1] | 39.3 ± 1.17 |  |  | 
28 | C#CCOc1ccccc1/C=N/Nc1nc(-c2ccc(Cl)cc2)cs1 [Compound 9] | 50.8 ± 1.52 |  | 160 to 164 | viability at 48 h, 100 μg ml^−1 (in vitro): > 75%
29 | C#CCOc1ccccc1/C=N/Nc1nc(-c2ccccc2)cs1 [Compound 7] | 51.7 ± 1.54 |  | 183 to 185 | viability at 48 h, 100 μg ml^−1 (in vitro): > 75%
30 | C#CCOc1ccc(Br)cc1/C=N/Nc1nc(-c2ccc(Cl)cc2)cs1 [Compound 27] | 38.1 ± 1.14 | 52.7 ± 1.58 | 209 to 211 | % Inhibition ± SD ([1]; 100 µg/ml, M. Tb H37Rv): 50%
31 | C#CCOc1ccccc1/C=N/NC(N)=S [Compound 4] | 46.8 ± 1.4 |  | 174 to 176 | antitubercular activity against M. Tb (active = 50% RLU reduction and above) ([1]; concentration not given): inactive
32 | C#CCOc1ccccc1/C=N/Nc1nc(-c2ccc(Cl)c(Cl)c2)cs1 [Compound 10] | 52 ± 1.56 |  |  | viability at 48 h, 100 μg ml^−1 (in vitro): > 75%
33 | C#CCOc1ccc(/C=N/Nc2nc(-c3ccc([N+](=O)[O-])cc3)cs2)cc1OCC [Compound 21] | 48.7 ± 1.46 | 50.9 ± 1.52 | 191 to 193 | 
